In US20220362253A1, “NOVEL PHARMACEUTICAL FORMULATION” (GLAXOSMITHKLINE INTELLECTUAL PROPERTY DEVELOPMENT LIMITED, priority 2018, published 2022):
In brackets after ≈: the same amount, converted by molar mass. Several values for one entry are separate records, joined by “and”; a condition that tells them apart may be missing. Equal entries are not always repeated.

What was measured:
[1] = Solubility screening up to 5 mg/mL at RT in aqueous acid media (Examples 1 to 6); format: physicochemical; settings: free base; for solubility at 24 h: thermodynamic from solid, read-out: Drug Solubility
Experimental: Solubility of Compound A was conducted by adding a known quantity of drug to specific volume of aqueous media followed by 24 hour agitation at room temperature (RT).

[2] = Solubility screening up to 2 mg/mL at RT in aqueous acid media (Examples 7 to 13); format: physicochemical; settings: target up to 2 mg/mL; for solubility at 24 h: thermodynamic from solid, read-out: Drug Solubility
[3] = Solubility in 20 mM acetic, citric and L-aspartic aqueous media as a function of pH (Example 14); format: physicochemical
[4] = Aqueous solubility with glutamic acid and glucuronic acid (Example 15); format: physicochemical; settings: aqueous buffer, thermodynamic from solid, adjusted pH 4.1, filtered supernatant
Excerpt: Aqueous solubility of Compound A with glutamic acid and glucuronic acid were explored in Example 15.

[5] = pHmax / Ksp determination with L-aspartic acid (Example 16); format: physicochemical; settings: for solubility: L-aspartic acid solution, thermodynamic from solid, >110 hr stirring at RT, read-out: Drug Solubility; for solubility / pH max: L-aspartic acid; for pH max: pHmax = pKa + log (S0/√Ksp)
Experimental: Compound A solubility was separately determined by controlling the mole ratio of L-aspartic acid relative to drug in Example 16. The concentrations of drug and counterion were measured in supernatant to calculate Ksp (Solubility product) (Table 5).

cynomolgus monkeys = assay: Injection site reactions after repeat IV bolus dosing (Example 17); format: in vivo, cynomolgus monkey; settings: weekly IV bolus into antecubital vein then saline flush, 30 mM L-aspartic acid, 3.7% mannitol, pH approximately 3.0, non-stoichiometric hydrate form
Experimental: In vivo studies were conducted in cynomolgus monkeys administered IV doses of Compound A in a vehicle of 30 mM L-aspartic acid, 3.7% mannitol in Sterile Water for Injection, pH approximately 3.0. For these studies, Compound A was used in a non-stoichiometric hydrate form according to Table 6.

[6] = Stated physical properties: water solubility, hygroscopicity; format: physicochemical
Stated bioavailability = settings: oral

With `CCn1nc(C)cc1C(=O)Nc1nc2cc(C(N)=O)cc(OC)c2n1C/C=C/Cn1c(NC(=O)c2cc(C)nn2CC)nc2cc(C(N)=O)cc(OCCCN3CCOCC3)c21` [Compound A, (E)-1-(4-(5-Carbamoyl-2-(1-ethyl-3-methyl-1H-pyrazole-5-carboxamido)-7-(3-morpholinopropoxy)-1H-benzo[d]imidazol-1-yl)but-2-en-1-yl)-2-(1-ethyl-3-methyl-1H-pyrazole-5-carboxamido)-7-methoxy-1H-benzo[d]imidazole-5-carboxamide] the “Drug Solubility” value ([1]; 9.5 mM Lactic acid, solution pH 3.83, stirred 24 h at RT) was 3590 µg/mL, the solubility at 24 h ([1]; 9.5 mM lactic acid aqueous medium, pH 3.83, aqueous buffer, 9.5 mM Lactic acid, solution pH 3.83, stirred 24 h at RT) was greater than 3500 µg/mL and the “Drug Solubility” value ([1]; 50 mM Citric acid, solution pH 2.30, stirred 24 h at RT) was 1320 µg/mL. The solubility at 24 h ([1]; 50 mM citric acid aqueous medium, pH 2.3, aqueous buffer, 50 mM Citric acid, solution pH 2.30, stirred 24 h at RT) was less than 2000 µg/mL, the “Drug Solubility” value ([1]; 72.8 mM Methane sulfonic acid, solution pH 1.27, stirred 24 h at RT) was 3850 µg/mL and the solubility at 24 h ([1]; 72.8 mM methane sulfonic acid aqueous medium, pH 1.27, aqueous buffer, 72.8 mM Methane sulfonic acid, solution pH 1.27, stirred 24 h at RT) was greater than 3500 µg/mL. The “Drug Solubility” value ([1]; 170 mM Acetic acid, solution pH 3.16, stirred 24 h at RT) was 4050 µg/mL, the solubility at 24 h ([1]; 170 mM acetic acid aqueous medium, pH 3.16, aqueous buffer, 170 mM Acetic acid, solution pH 3.16, stirred 24 h at RT) was greater than 3500 µg/mL and the “Drug Solubility” value ([2]; 10 mM Acetic acid, solution pH 3.33, stirred 24 h) was 1450 µg/mL. For the same compound, the “Drug Solubility” value ([2]; 10 mM Methane sulfonic acid, solution pH 1.99, stirred 24 h) was 1780 µg/mL, the solubility at 24 h ([2]; 10 mM acetic acid aqueous medium, pH 3.33, aqueous buffer, 10 mM Acetic acid, solution pH 3.33, stirred 24 h) was greater than 1000 µg/mL and the solubility at 24 h ([2]; 10 mM methane sulfonic acid aqueous medium, pH 1.99, aqueous buffer, 10 mM Methane sulfonic acid, solution pH 1.99, stirred 24 h) was greater than 1000 µg/mL. The “Drug Solubility” value ([2]; 25 mM Aspartic acid, solution pH 2.95, stirred 24 h) was 1800 µg/mL, the “Drug Solubility” value ([2]; 25 mM Citric acid, solution pH 2.32, stirred 24 h) was 1810 µg/mL and the “Drug Solubility” value ([2]; 25 mM Lactic acid, solution pH 2.57, stirred 24 h) was 1830 µg/mL. For the same compound, the “Drug Solubility” value ([2]; 25 mM Tartaric acid, solution pH 2.33, stirred 24 h) was 800 µg/mL, the solubility at 24 h ([2]; 25 mM aspartic acid aqueous medium, pH 2.95, aqueous buffer, 25 mM Aspartic acid, solution pH 2.95, stirred 24 h) was greater than 1000 µg/mL and the solubility at 24 h ([2]; 25 mM citric acid aqueous medium, pH 2.32, aqueous buffer, 25 mM Citric acid, solution pH 2.32, stirred 24 h) was greater than 1000 µg/mL. It also gave a solubility at 24 h ([2]; 25 mM lactic acid aqueous medium, pH 2.57, aqueous buffer, 25 mM Lactic acid, solution pH 2.57, stirred 24 h) greater than 1000 µg/mL, a solubility at 24 h ([2]; 25 mM tartaric acid aqueous medium, pH 2.33, aqueous buffer, 25 mM Tartaric acid, solution pH 2.33, stirred 24 h) of less than 1000 µg/mL and a solubility ([3]; 20 mM L-aspartic acid aqueous media, 22 °C, aqueous buffer, thermodynamic from solid, 20 mM L-aspartic acid media, pH 6.14, 22 ± 1° C., Compound A in excess, read-out: Solubility) of 0.7 µg/mL (≈ 0.824 µM). It also gave a solubility ([3]; 20 mM L-aspartic acid aqueous media, 22 °C, aqueous buffer, thermodynamic from solid, 20 mM L-aspartic acid media, pH 7.97, 22 ± 1° C., Compound A in excess, read-out: Solubility) of 0.5 µg/mL (≈ 0.588 µM), a solubility ([3]; 20 mM L-aspartic acid aqueous media, 22 °C, aqueous buffer, thermodynamic from solid, 20 mM L-aspartic acid media, pH 8.87, 22 ± 1° C., Compound A in excess, read-out: Solubility) of 0.9 µg/mL (≈ 1.06 µM) and a solubility ([3]; 20 mM L-aspartic acid aqueous medium, aqueous buffer, Aspartic acid, at pH<3, read-out: Highest solubility) of 4000 µg/mL (≈ 4710 µM). The solubility ([3]; 20 mM acetic acid aqueous media, 22 °C, aqueous buffer, thermodynamic from solid, 20 mM acetic acid media, pH 6.42, 22 ± 1° C., Compound A in excess, read-out: Solubility) was 0.5 µg/mL (≈ 0.588 µM), the solubility ([3]; 20 mM acetic acid aqueous media, 22 °C, aqueous buffer, thermodynamic from solid, 20 mM acetic acid media, pH 9.84, 22 ± 1° C., Compound A in excess, read-out: Solubility) was 0.5 µg/mL (≈ 0.588 µM) and the solubility ([3]; 20 mM acetic, citric or L-aspartic acid aqueous media, aqueous buffer, at pH 4.0, any of the counter ions (L-aspartic, acetic, citric acid), read-out: Solubility) was no more than 500 µg/mL. For the same compound, the solubility ([3]; 20 mM citric acid aqueous media, 22 °C, aqueous buffer, thermodynamic from solid, 20 mM citric acid media, pH 6.92, 22 ± 1° C., Compound A in excess, read-out: Solubility) was 0.5 µg/mL (≈ 0.588 µM), the solubility ([3]; 20 mM citric acid aqueous media, 22 °C, aqueous buffer, thermodynamic from solid, 20 mM citric acid media, pH 8.82, 22 ± 1° C., Compound A in excess, read-out: Solubility) was 0.5 µg/mL (≈ 0.588 µM) and the solubility ([3]; 22 °C, aqueous buffer, thermodynamic from solid, 20 mM L-aspartic acid media, pH 3.05, 22 ± 1° C., Compound A in excess, read-out: Solubility) was 5270 µg/mL (≈ 6200 µM). For the same compound, the solubility ([3]; 22 °C, aqueous buffer, thermodynamic from solid, 20 mM L-aspartic acid media, pH 3.23, 22 ± 1° C., Compound A in excess, read-out: Solubility) was 3970 µg/mL (≈ 4670 µM), the solubility ([3]; 22 °C, aqueous buffer, thermodynamic from solid, 20 mM L-aspartic acid media, pH 3.76, 22 ± 1° C., Compound A in excess, read-out: Solubility) was 472 µg/mL (≈ 555 µM) and the solubility ([3]; 22 °C, aqueous buffer, thermodynamic from solid, 20 mM L-aspartic acid media, pH 3.96, 22 ± 1° C., Compound A in excess, read-out: Solubility) was 227 µg/mL (≈ 267 µM). For the same compound, the solubility ([3]; 22 °C, aqueous buffer, thermodynamic from solid, 20 mM L-aspartic acid media, pH 4.18, 22 ± 1° C., Compound A in excess, read-out: Solubility) was 68.7 µg/mL (≈ 80.8 µM), the solubility ([3]; 22 °C, aqueous buffer, thermodynamic from solid, 20 mM L-aspartic acid media, pH 4.54, 22 ± 1° C., Compound A in excess, read-out: Solubility) was 16.7 µg/mL (≈ 19.6 µM) and the solubility ([3]; 22 °C, aqueous buffer, thermodynamic from solid, 20 mM L-aspartic acid media, pH 4.93, 22 ± 1° C., Compound A in excess, read-out: Solubility) was 5 µg/mL (≈ 5.88 µM). The solubility ([3]; 22 °C, aqueous buffer, thermodynamic from solid, 20 mM acetic acid media, pH 3.26, 22 ± 1° C., Compound A in excess, read-out: Solubility) was 1760 µg/mL (≈ 2070 µM), the solubility ([3]; 22 °C, aqueous buffer, thermodynamic from solid, 20 mM acetic acid media, pH 3.58, 22 ± 1° C., Compound A in excess, read-out: Solubility) was 1090 µg/mL (≈ 1280 µM) and the solubility ([3]; 22 °C, aqueous buffer, thermodynamic from solid, 20 mM acetic acid media, pH 3.71, 22 ± 1° C., Compound A in excess, read-out: Solubility) was 810 µg/mL (≈ 953 µM). It also gave a solubility ([3]; 22 °C, aqueous buffer, thermodynamic from solid, 20 mM acetic acid media, pH 3.91, 22 ± 1° C., Compound A in excess, read-out: Solubility) of 396 µg/mL (≈ 466 µM), a solubility ([3]; 22 °C, aqueous buffer, thermodynamic from solid, 20 mM acetic acid media, pH 4.09, 22 ± 1° C., Compound A in excess, read-out: Solubility) of 269 µg/mL (≈ 316 µM) and a solubility ([3]; 22 °C, aqueous buffer, thermodynamic from solid, 20 mM acetic acid media, pH 4.64, 22 ± 1° C., Compound A in excess, read-out: Solubility) of 24.1 µg/mL (≈ 28.4 µM). For the same compound, the solubility ([3]; 22 °C, aqueous buffer, thermodynamic from solid, 20 mM acetic acid media, pH 4.85, 22 ± 1° C., Compound A in excess, read-out: Solubility) was 10.8 µg/mL (≈ 12.7 µM), the solubility ([3]; 22 °C, aqueous buffer, thermodynamic from solid, 20 mM acetic acid media, pH 5.48, 22 ± 1° C., Compound A in excess, read-out: Solubility) was 2.9 µg/mL (≈ 3.41 µM) and the solubility ([3]; 22 °C, aqueous buffer, thermodynamic from solid, 20 mM citric acid media, pH 2.47, 22 ± 1° C., Compound A in excess, read-out: Solubility) was 456 µg/mL (≈ 536 µM). For the same compound, the solubility ([3]; 22 °C, aqueous buffer, thermodynamic from solid, 20 mM citric acid media, pH 2.61, 22 ± 1° C., Compound A in excess, read-out: Solubility) was 195 µg/mL (≈ 229 µM), the solubility ([3]; 22 °C, aqueous buffer, thermodynamic from solid, 20 mM citric acid media, pH 2.74, 22 ± 1° C., Compound A in excess, read-out: Solubility) was 81.6 µg/mL (≈ 96 µM) and the solubility ([3]; 22 °C, aqueous buffer, thermodynamic from solid, 20 mM citric acid media, pH 3.98, 22 ± 1° C., Compound A in excess, read-out: Solubility) was 5.4 µg/mL (≈ 6.35 µM). It also gave a solubility ([3]; 22 °C, aqueous buffer, thermodynamic from solid, 20 mM citric acid media, pH 4.94, 22 ± 1° C., Compound A in excess, read-out: Solubility) of 4 µg/mL (≈ 4.71 µM), a solubility ([3]; 22 °C, aqueous buffer, thermodynamic from solid, 20 mM citric acid media, pH 5.91, 22 ± 1° C., Compound A in excess, read-out: Solubility) of 1.3 µg/mL (≈ 1.53 µM) and a solubility ([3]; 22 °C, pH 2.9, aqueous buffer, thermodynamic from solid, 20 mM citric acid media, pH 2.90, 22 ± 1° C., Compound A in excess, read-out: Solubility) of 41.5 µg/mL (≈ 48.8 µM). The solubility ([3]; 22 °C, pH 3.4, aqueous buffer, thermodynamic from solid, 20 mM citric acid media, pH 3.40, 22 ± 1° C., Compound A in excess, read-out: Solubility) was 8.3 µg/mL (≈ 9.77 µM), the solubility ([4]; aqueous glucuronic acid (1 mol eq), Glucuronic acid (1 mol eq)) was 9000 µg/mL (≈ 10600 µM) and the solubility ([4]; aqueous glutamic acid (1 mol eq), Glutamic acid (1 mol eq)) was 4500 µg/mL (≈ 5290 µM). For the same compound, the solubility ([5]; counterion conc. 8.45 mM) was 4070 µg/mL and 4790 µM, the solubility ([5]; counterion conc. 8.70 mM) was 3950 µg/mL and 4640 µM and the solubility ([5]; counterion conc. 9.18 mM) was 3940 µg/mL and 4640 µM. For the same compound, the solubility ([5]; counterion conc. 9.33 mM) was 4140 µg/mL and 4880 µM, the pH max ([5]; counterion conc. 8.45 mM) was 3.57 and the pH max ([5]; counterion conc. 8.70 mM) was 3.57. For the same compound, the pH max ([5]; counterion conc. 9.18 mM) was 3.56, the pH max ([5]; counterion conc. 9.33 mM) was 3.54 and the pHmax ([5]; in L-aspartic acid media, from the Ksp measurements in Table 5) was 3.5-3.6. The pKa ([5]; value used for the pHmax calculation, read-out: pKa of drug) was 7, the Injection site reactions (cynomolgus monkeys) was “no Compound A-related injection site reactions were observed” and the solubility [6] was less than 10 µg/mL. The bioavailability (Stated bioavailability) was “poor oral bioavailability”.
